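Grown in 96-well plates, cells were treated for 48 hours with each compound at five concentrations. Insufficient inhibition: endpoint recorded as highest concentration tested. TGI denotes the concentration required for complete inhibition of growth.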
Experiments:
Assay in all cases: NCI-60 cell line screen, 48 h
RPMI-8226 leukemia = test system: RPMI-8226 leukemia
SK-OV-3 ovarian = test system: SK-OV-3 ovarian
SNB-78 CNS = test system: SNB-78 CNS
HL-60(TB) leukemia = test system: HL-60(TB) leukemia
A549 NSCLC = test system: A549 NSCLC
NCI-H460 lung = test system: NCI-H460 lung
UACC-257 melanoma = test system: UACC-257 melanoma
NCI-H522 lung = test system: NCI-H522 lung
NCI-H226 lung = test system: NCI-H226 lung
SW-620 colon = test system: SW-620 colon
786-0 renal = test system: 786-0 renal
EKVX NSCLC = test system: EKVX NSCLC
CCRF-CEM leukemia = test system: CCRF-CEM leukemia
SK-MEL-2 melanoma = test system: SK-MEL-2 melanoma
OVCAR-5 ovarian = test system: OVCAR-5 ovarian
SNB-75 CNS = test system: SNB-75 CNS
M14 melanoma = test system: M14 melanoma
SK-MEL-28 melanoma = test system: SK-MEL-28 melanoma
DLD-1 colon = test system: DLD-1 colon
OVCAR-8 ovarian = test system: OVCAR-8 ovarian
MOLT-4 leukemia = test system: MOLT-4 leukemia
HOP-92 NSCLC = test system: HOP-92 NSCLC
SN12C renal = test system: SN12C renal
XF 498 CNS = test system: XF 498 CNS
K-562 leukemia = test system: K-562 leukemia
SF-268 CNS = test system: SF-268 CNS
CAKI-1 renal = test system: CAKI-1 renal
HOP-62 NSCLC = test system: HOP-62 NSCLC
NCI-H23 lung = test system: NCI-H23 lung
HT29 colon = test system: HT29 colon
SR leukemia = test system: SR leukemia
KM12 colon = test system: KM12 colon
A498 renal = test system: A498 renal
OVCAR-4 ovarian = test system: OVCAR-4 ovarian
UACC-62 melanoma = test system: UACC-62 melanoma
UO-31 renal = test system: UO-31 renal
SNB-19 CNS = test system: SNB-19 CNS
DMS 114 small cell lung = test system: DMS 114 small cell lung
OVCAR-3 ovarian = test system: OVCAR-3 ovarian
TK-10 renal = test system: TK-10 renal
COLO 205 colon = test system: COLO 205 colon
LXFL 529 NSCLC = test system: LXFL 529 NSCLC
U251 CNS = test system: U251 CNS
SF-295 CNS = test system: SF-295 CNS
SK-MEL-5 melanoma = test system: SK-MEL-5 melanoma
KM20L2 colon = test system: KM20L2 colon
M19-MEL melanoma = test system: M19-MEL melanoma
IGROV1 ovarian = test system: IGROV1 ovarian
HCT-116 colon = test system: HCT-116 colon
ACHN renal = test system: ACHN renal
MDA-MB-231 breast = test system: MDA-MB-231 breast
MALME-3M melanoma = test system: MALME-3M melanoma
MCF7 breast = test system: MCF7 breast
LOX IMVI melanoma = test system: LOX IMVI melanoma
BT-549 breast = test system: BT-549 breast
DU-145 prostate = test system: DU-145 prostate
SF-539 CNS = test system: SF-539 CNS
HCT-15 colon = test system: HCT-15 colon
T-47D breast = test system: T-47D breast
RXF 393 renal = test system: RXF 393 renal
HS 578T breast = test system: HS 578T breast
MDA-N = test system: MDA-N
MDA-MB-435 = test system: MDA-MB-435
PC-3 prostate = test system: PC-3 prostate
NCI/ADR-RES ovarian = test system: NCI/ADR-RES ovarian
HCC-2998 colon = test system: HCC-2998 colon

Compound: CC(=O)Oc1c(-c2ccccc2)[nH]c2cc([N+](=O)[O-])c(/C(Cl)=C/c3ccccc3)cc12
- TGI (RPMI-8226 leukemia): > 100 µM
- TGI (SK-OV-3 ovarian): 83.9 µM
- TGI (SNB-78 CNS): 52.6 µM
- TGI (HL-60(TB) leukemia): 10.7 µM
- TGI (A549 NSCLC): 44.5 µM
- TGI (NCI-H460 lung): 70.2 µM
- TGI (UACC-257 melanoma): 27.7 µM
- TGI (NCI-H522 lung): 18.5 µM
- TGI (NCI-H226 lung): 18.1 µM
- TGI (SW-620 colon): 29.3 µM
- TGI (786-0 renal): 25.5 µM
- TGI (EKVX NSCLC): 59.3 µM
- TGI (CCRF-CEM leukemia): 29.5 µM
- TGI (SK-MEL-2 melanoma): 30.8 µM
- TGI (OVCAR-5 ovarian): 17.7 µM
- TGI (SNB-75 CNS): > 100 µM
- TGI (M14 melanoma): 23.1 µM
- TGI (SK-MEL-28 melanoma): 25.2 µM
- TGI (DLD-1 colon): > 100 µM
- TGI (OVCAR-8 ovarian): 17.7 µM
- TGI (MOLT-4 leukemia): 13.8 µM
- TGI (HOP-92 NSCLC): 18.3 µM
- TGI (SN12C renal): 19.4 µM
- TGI (XF 498 CNS): 19.3 µM
- TGI (K-562 leukemia): > 100 µM
- TGI (SF-268 CNS): > 100 µM
- TGI (CAKI-1 renal): 69.2 µM
- TGI (HOP-62 NSCLC): 61.5 µM
- TGI (NCI-H23 lung): 11.6 µM
- TGI (HT29 colon): 11.1 µM
- TGI (SR leukemia): 27.4 µM
- TGI (KM12 colon): 16.3 µM
- TGI (A498 renal): 23.6 µM
- TGI (OVCAR-4 ovarian): 39.3 µM
- TGI (UACC-62 melanoma): 19.6 µM
- TGI (UO-31 renal): 27.6 µM
- TGI (SNB-19 CNS): 94.2 µM
- TGI (DMS 114 small cell lung): 7.72 µM
- TGI (OVCAR-3 ovarian): 46.8 µM
- TGI (TK-10 renal): 64.4 µM
- TGI (COLO 205 colon): 19.6 µM
- TGI (LXFL 529 NSCLC): 18.1 µM
- TGI (U251 CNS): 19.8 µM
- TGI (SF-295 CNS): 22.5 µM
- TGI (SK-MEL-5 melanoma): 3.75 µM
- TGI (KM20L2 colon): 18.6 µM
- TGI (M19-MEL melanoma): 19.4 µM
- TGI (IGROV1 ovarian): 65.8 µM
- TGI (HCT-116 colon): 17.3 µM
- TGI (ACHN renal): 46.6 µM

Compound: O=C(O)Cc1ccc(Oc2nc3ccccc3nc2-c2cccs2)cc1
- TGI (RPMI-8226 leukemia): > 100 µM
- TGI (MDA-MB-231 breast): > 100 µM
- TGI (MALME-3M melanoma): > 100 µM
- TGI (SK-OV-3 ovarian): > 100 µM
- TGI (MCF7 breast): > 100 µM
- TGI (HL-60(TB) leukemia): > 100 µM
- TGI (LOX IMVI melanoma): > 100 µM
- TGI (A549 NSCLC): > 100 µM
- TGI (BT-549 breast): > 100 µM
- TGI (NCI-H460 lung): > 100 µM
- TGI (UACC-257 melanoma): > 100 µM
- TGI (NCI-H522 lung): > 100 µM
- TGI (NCI-H226 lung): > 100 µM
- TGI (SW-620 colon): > 100 µM
- TGI (DU-145 prostate): > 100 µM
- TGI (786-0 renal): > 100 µM
- TGI (EKVX NSCLC): > 100 µM
- TGI (SF-539 CNS): > 100 µM
- TGI (CCRF-CEM leukemia): > 100 µM
- TGI (SK-MEL-2 melanoma): > 100 µM
- TGI (OVCAR-5 ovarian): > 100 µM
- TGI (HCT-15 colon): > 100 µM
- TGI (SNB-75 CNS): 83.2 µM
- TGI (T-47D breast): 63.6 µM
- TGI (M14 melanoma): > 100 µM
- TGI (SK-MEL-28 melanoma): > 100 µM
- TGI (RXF 393 renal): 56.5 µM
- TGI (OVCAR-8 ovarian): > 100 µM
- TGI (MOLT-4 leukemia): > 100 µM
- TGI (HOP-92 NSCLC): > 100 µM
- TGI (HS 578T breast): > 100 µM
- TGI (SN12C renal): > 100 µM
- TGI (MDA-N): > 100 µM
- TGI (MDA-MB-435): > 100 µM
- TGI (K-562 leukemia): > 100 µM
- TGI (SF-268 CNS): > 100 µM
- TGI (CAKI-1 renal): > 100 µM
- TGI (HOP-62 NSCLC): > 100 µM
- TGI (NCI-H23 lung): > 100 µM
- TGI (HT29 colon): > 100 µM
- TGI (SR leukemia): > 100 µM
- TGI (KM12 colon): > 100 µM
- TGI (A498 renal): 84.7 µM
- TGI (PC-3 prostate): > 100 µM
- TGI (OVCAR-4 ovarian): > 100 µM
- TGI (UACC-62 melanoma): > 100 µM
- TGI (UO-31 renal): > 100 µM
- TGI (SNB-19 CNS): > 100 µM
- TGI (OVCAR-3 ovarian): > 100 µM
- TGI (TK-10 renal): > 100 µM
- TGI (COLO 205 colon): 80.1 µM
- TGI (U251 CNS): > 100 µM
- TGI (SF-295 CNS): > 100 µM
- TGI (SK-MEL-5 melanoma): > 100 µM
- TGI (NCI/ADR-RES ovarian): > 100 µM
- TGI (IGROV1 ovarian): > 100 µM
- TGI (HCC-2998 colon): > 100 µM
- TGI (HCT-116 colon): > 100 µM
- TGI (ACHN renal): > 100 µM

Compound: Cc1cc(NS(=O)(=O)c2ccc(NC(=O)c3ccc4nc5ccccc5c(Nc5ccc(S(=O)(=O)N=C(N)N)cc5)c4c3)cc2)no1
- TGI (RPMI-8226 leukemia): 71.9 µM
- TGI (MDA-MB-231 breast): 29.4 µM
- TGI (MALME-3M melanoma): 29.4 µM
- TGI (SK-OV-3 ovarian): 41.6 µM
- TGI (MCF7 breast): 36.4 µM
- TGI (HL-60(TB) leukemia): 46.2 µM
- TGI (LOX IMVI melanoma): 23.1 µM
- TGI (A549 NSCLC): 31.4 µM
- TGI (BT-549 breast): 46 µM
- TGI (NCI-H460 lung): 34.5 µM
- TGI (UACC-257 melanoma): 67.1 µM
- TGI (NCI-H522 lung): 34.8 µM
- TGI (NCI-H226 lung): 28.5 µM
- TGI (SW-620 colon): 48.5 µM
- TGI (DU-145 prostate): 32.3 µM
- TGI (786-0 renal): 30.6 µM
- TGI (EKVX NSCLC): 30 µM
- TGI (SF-539 CNS): 44.9 µM
- TGI (CCRF-CEM leukemia): 34.3 µM
- TGI (SK-MEL-2 melanoma): 33.4 µM
- TGI (OVCAR-5 ovarian): 31.8 µM
- TGI (HCT-15 colon): 29.3 µM
- TGI (SNB-75 CNS): 51.9 µM
- TGI (T-47D breast): 34.4 µM
- TGI (M14 melanoma): 34.6 µM
- TGI (SK-MEL-28 melanoma): 35 µM
- TGI (RXF 393 renal): 31.1 µM
- TGI (OVCAR-8 ovarian): 32.9 µM
- TGI (MOLT-4 leukemia): 40.8 µM
- TGI (HOP-92 NSCLC): 67.6 µM
- TGI (HS 578T breast): 72.7 µM
- TGI (SN12C renal): 34.4 µM
- TGI (MDA-N): 41.4 µM
- TGI (MDA-MB-435): 35.3 µM
- TGI (K-562 leukemia): 27.7 µM
- TGI (SF-268 CNS): 37.3 µM
- TGI (CAKI-1 renal): 33.6 µM
- TGI (HOP-62 NSCLC): 35.8 µM
- TGI (NCI-H23 lung): 38.6 µM
- TGI (HT29 colon): 38.2 µM
- TGI (SR leukemia): 46.7 µM
- TGI (KM12 colon): 32.2 µM
- TGI (A498 renal): 33.7 µM
- TGI (PC-3 prostate): 39.3 µM
- TGI (OVCAR-4 ovarian): 31.4 µM
- TGI (UACC-62 melanoma): 46.5 µM
- TGI (UO-31 renal): 32.1 µM
- TGI (SNB-19 CNS): 94.3 µM
- TGI (OVCAR-3 ovarian): 34.6 µM
- TGI (TK-10 renal): 41.4 µM
- TGI (COLO 205 colon): 38.5 µM
- TGI (U251 CNS): 30 µM
- TGI (SF-295 CNS): 38 µM
- TGI (SK-MEL-5 melanoma): 30.5 µM
- TGI (NCI/ADR-RES ovarian): 57.5 µM
- TGI (IGROV1 ovarian): 38.6 µM
- TGI (HCC-2998 colon): 30.8 µM
- TGI (HCT-116 colon): 35.6 µM
- TGI (ACHN renal): 26.4 µM

Reference: PubChem BioAssay (NCI)
